From PubChem BioAssay (NCI)
“And” between values parts separate entries of the source, which are not always exact repeats. Equal values may be shown once.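 How tested: cells in 96-well plates exposed to compound for 48 hours at five concentrations. Abbreviation: GI50, concentration required for 50% inhibition of growth. TGI: total growth inhibition.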

Legend:
Assay in all cases: DTP human tumour cell line panel, 48 h
A498 renal = tested on: A498 renal
KM12 colon = tested on: KM12 colon
A549 NSCLC = tested on: A549 NSCLC
OVCAR-8 ovarian = tested on: OVCAR-8 ovarian
SK-MEL-5 melanoma = tested on: SK-MEL-5 melanoma
MOLT-4 leukemia = tested on: MOLT-4 leukemia
K-562 leukemia = tested on: K-562 leukemia
U251 CNS = tested on: U251 CNS
SF-268 CNS = tested on: SF-268 CNS
NCI-H226 lung = tested on: NCI-H226 lung

Compound | GI50 (A498 renal) | TGI (A498 renal) | TGI (KM12 colon) | GI50 (A549 NSCLC) | TGI (A549 NSCLC) | GI50 (OVCAR-8 ovarian) | TGI (OVCAR-8 ovarian) | GI50 (SK-MEL-5 melanoma) | TGI (SK-MEL-5 melanoma) | GI50 (MOLT-4 leukemia) | TGI (MOLT-4 leukemia) | GI50 (K-562 leukemia) | TGI (K-562 leukemia) | GI50 (U251 CNS) | TGI (U251 CNS) | GI50 (SF-268 CNS) | TGI (SF-268 CNS) | TGI (NCI-H226 lung) | GI50 (KM12 colon) | GI50 (NCI-H226 lung)
S=c1nc[nH]c2nc[nH]c12 | 104000 nM | 584 µM and 187 µM | > 100 µM and 716 µM and > 707 µM | 65900 nM | > 100 µM and 714 µM and > 750 µM | 3740 nM and 35500 nM | > 100 µM and 739 µM and > 532 µM | 5400 nM and 46100 nM | 62.2 µM and 285 µM and > 430 µM | 2340 nM and 13200 nM | 26.8 µM and 245 µM and 31.6 µM | 3340 nM | 446 µM and 251 µM | 19300 nM and 72400 nM | > 100 µM and 719 µM and > 750 µM | 12300 nM | > 100 µM and 681 µM and > 750 µM | > 100 µM and 676 µM and > 750 µM |  | 
CN(C)CCN1C(=O)c2cccc3c(N)ccc(c23)C1=O | 11500 nM | > 25 µM | > 25 µM | 9040 nM | > 25 µM | 9530 nM | > 25 µM | 9130 nM | > 25 µM | 6820 nM | 20.2 µM | 6760 nM | 20.4 µM | 10700 nM | > 25 µM | 15000 nM | > 25 µM | > 25 µM | 14200 nM | 7690 nM
O=C(Nc1ccc(Cl)cc1F)c1cc(F)ccc1O | 251 nM | 0.98 µM | 5.56 µM | 2790 nM | > 45.8 µM | 2400 nM | > 70.8 µM | 274 nM | 0.847 µM | 1900 nM | 4.77 µM | 609 nM | > 100 µM | 832 nM | > 38.8 µM | 854 nM | 12.1 µM | 5.49 µM | 2030 nM | 1020 nM
COc1cc(OC)cc(-c2ccc(-c3ccc(C(=N)N)s3)s2)c1 | 1460 nM | 3.05 µM | 2.04 µM and 1.13 µM | 1630 nM | 3.37 µM | 1660 nM | 4.16 µM | 1410 nM | 2.81 µM | 396 nM and 230 nM | 1.12 µM and 0.486 µM | 346 nM and 178 nM | 1.11 µM and 0.441 µM | 404 nM | 1.73 µM | 1670 nM | 3.42 µM | 3.71 µM | 517 nM and 302 nM | 1610 nM
CCN1/C(=C/C=C/C=C/c2sc3ccccc3[n+]2CC)Sc2ccccc21 | 943 nM | 4.12 µM | 1.4 µM | 332 nM | 2.59 µM | 398 nM | 2.58 µM | 314 nM | 1.42 µM | 234 nM | 1.02 µM | 65.2 nM | 0.512 µM | 234 nM | 1.54 µM | 431 nM | 1.62 µM | 2.99 µM | 378 nM | 344 nM
O=C1c2ccc3c4c(ccc(c24)C(=O)N1CCCNCc1ccccc1)C(=O)N(CCCNCc1ccccc1)C3=O | 951 nM | 2.18 µM | 0.288 µM | 131 nM | 0.365 µM | 99.3 nM | 0.407 µM | 165 nM | 0.302 µM | 85.8 nM | 0.437 µM | 136 nM | 0.778 µM | 112 nM | 0.301 µM | 173 nM | 0.531 µM | 2.25 µM | 108 nM | 694 nM
Cc1coc2c1CC1OC1(C)CCC1OC1(C)C2 (stereo not drawn) |  | > 100 µM | > 100 µM |  | > 100 µM |  | > 100 µM |  | > 100 µM |  | > 100 µM |  | > 100 µM |  | > 100 µM |  | > 100 µM | > 100 µM |  | 
COc1nc2c(cc1S(=O)(=O)c1ccccc1)CCc1c-2cnn1Cc1ccccc1 | 2700 nM | > 100 µM | > 100 µM | > 100000 nM | > 100 µM | 34500 nM | > 100 µM | 2890 nM | > 100 µM | 5480 nM | > 100 µM | 3020 nM | > 100 µM | 7580 nM | > 100 µM | > 100000 nM | > 100 µM | > 100 µM | 3730 nM | 35800 nM
Cc1cc(C(=O)N[C@@H](CCC(=O)O)C(=O)O)sc1CC[C@@H]1CNc2nc(N)[nH]c(=O)c2C1 | 59.8 nM | > 100 µM | > 100 µM | 43.6 nM | > 100 µM | < 17.2 nM | > 90.6 µM | 67.9 nM | > 100 µM | 29.2 nM | > 100 µM | < 10 nM | > 100 µM | 27.4 nM | > 100 µM | 37.2 nM | > 100 µM | > 100 µM | 46 nM | < 24.5 nM
Cc1cc(O)c(C2=NN(c3ccc(S(N)(=O)=O)cc3)C(c3ccccc3O)C2)cc1Cl (stereo not drawn) | 1690 nM | 7.29 µM | 3.4 µM | 2670 nM | 7.85 µM | 2800 nM | 8.54 µM | 5600 nM | 18.2 µM | 3110 nM | 12.2 µM | 2170 nM | 7.93 µM | 2140 nM | 5.16 µM | 2640 nM | 8.06 µM | 6.05 µM | 1740 nM | 1830 nM
O=c1c2cc(Br)ccc2nc(-c2ccccc2)n1NCC1(O)OCC(O)C(O)C1O (stereo not drawn) |  | > 100 µM | > 100 µM |  | > 100 µM |  | > 100 µM |  | > 100 µM |  | > 100 µM |  | > 100 µM |  | > 100 µM |  | > 100 µM | > 100 µM |  | 
Cc1c2cnccc2c(C)c2c1c1cc(C(=O)O)ccc1n2C | 410 nM | 2.14 µM | 6.92 µM | 1680 nM | 6.68 µM | 675 nM | 8.3 µM | 897 nM | 2.44 µM | 530 nM | 3.38 µM | 1280 nM | > 100 µM | 918 nM | 7.95 µM | 937 nM | 4.81 µM | 2.47 µM | 1040 nM | 454 nM
OC(COc1cccc2ccccc12)CN1CCN(c2ccc(Cl)cc2)CC1 (stereo not drawn) | 21300 nM | 92 µM | > 100 µM | 19400 nM | > 100 µM | 15200 nM | 41 µM | 55800 nM | > 100 µM | > 100000 nM | > 100 µM | > 100000 nM | > 100 µM | 12600 nM | 29.9 µM | 19100 nM | 45.5 µM | 70.4 µM | 38300 nM | 13800 nM
